Earlier results, collected in EP3913370A1, “METHOD FOR DIAGNOSING CARCINOMAS USING IRGD AS A TUMOR MARKER BOOSTER” (Piiper, Albrecht, priority 2020, dated 2021).

Experiments:
[1] = in vivo
[2] = human, in vivo

Compound: N=C(N)NCCC[C@@H]1NC(=O)[C@@H](N)CSSC[C@@H](C(=O)O)NC(=O)[C@H](CC(=O)O)NC(=O)[C@@H]2CCCN2C(=O)CNC(=O)[C@H](CCCCN)NC(=O)[C@H](CC(=O)O)NC(=O)CNC1=O [iRGD, CRGDKGPDC (SEQ ID No. 1)]
- toxicity associated with administration [1]: no toxicity
- toxicity in humans [2]: low toxicity
